This series is described as follows: Two-component Cys-Cys stapling by Pd-catalysed Tsuji-Trost S-allylation with bis(allylic carbonate) Ri ((Z)-but-2-ene-1,4-diyl) or Rj (2-methylenepropane-1,3-diyl), 1.2 eq; 2.4 eq Pd(dba)2, 2.4 eq BIPHEPHOS; bis-thioether formation. As to conditions: the molecule shown is the open-chain precursor, CH3CN/H2O 2:1, 1.0 mM, 40.0 °C, 3.0 h, scale: 1 = cyclic product formed with full conversion of the linear peptide.

Under “21-membered ring”, “H-Glu-Trp-Ala-Cys-Thr-Ala-Ala-Cys-Lys-Phe-Leu-Ala-Ala-His-Ala-OH (Cys4/Cys8 free SH; one S carries CH2CH=CHCH2OCO2Me from Ri at closure; two product peaks, presumably E/Z)” registered a ring closure, product found of 1. For the setting “18-membered ring”, “H-Glu-Trp-Ala-Cys-Thr-Ala-Cys-Ala-Lys-Phe-Leu-Ala-Ala-His-Ala-OH (Cys4/Cys7 free SH; one S carries CH2CH=CHCH2OCO2Me from Ri at closure; two product peaks, presumably E/Z)” displayed a ring closure, product found of 1.

As for “H-Ala-Gly-Cys-Lys-Asn-Phe-Phe-Trp-Lys-Thr-Phe-Thr-Ser-Cys-OH (Cys3/Cys14 free SH; one S carries CH2CH=CHCH2OCO2Me from Ri at closure; single product peak)”, the ring closure, product found (42-membered ring) is 1. Under “20-membered ring”, “H-Glu-Trp-Ala-Cys-Thr-Ala-Ala-Cys-Lys-Phe-Leu-Ala-Ala-His-Ala-OH (Cys4/Cys8 free SH; one S carries CH2C(=CH2)CH2OCO2Me from Rj at closure; single product peak)” returned a ring closure, product found of 1. In the case of “H-Glu-Trp-Ala-Cys-Thr-Ala-Cys-Ala-Lys-Phe-Leu-Ala-Ala-His-Ala-OH (Cys4/Cys7 free SH; one S carries CH2C(=CH2)CH2OCO2Me from Rj at closure; single product peak)”, under “17-membered ring”, the ring closure, product found stood at 1. Under “41-membered ring”, “H-Ala-Gly-Cys-Lys-Asn-Phe-Phe-Trp-Lys-Thr-Phe-Thr-Ser-Cys-OH (Cys3/Cys14 free SH; one S carries CH2C(=CH2)CH2OCO2Me from Rj at closure; two monomer peaks plus approx. 10% 2+2 dimer)” returned a ring closure, product found of 1.

For the origin of these results see paper PMC6776382.
